Measurements from patent publication US8883798B2, “Pyrimidine compounds inhibiting the formation of nitric oxide and prostaglandin E2, method of production thereof and use thereof” (Ustav Organicke Chemie a Biochemie Akademie Ved CR, V.V.I., priority 2011, dated 2014).

How the values were obtained:
[1] = system: production of nitric oxide (NO); experiment: Production of nitric oxide (NO) in cultures of mouse peritoneal cells stimulated with IFN-γ plus LPS (Griess reagent); assay type: cell-based, mice; settings: substance 50 μmol·l^−1, IFN-g plus LPS, 24 h
Procedure: (§1) Under in vitro conditions, the effect of the pyrimidine compounds according to this invention was tested in terms of the production of nitric oxide (NO) and in terms of the production of prostaglandin E2 (PGE2) in cultures of the peritoneal cells of mice.
NO is a product of the metabolism of L-arginine, quickly changes to […], which are then measured using the Griess reagent system. Under normal conditions, the production of NO is practically zero. It only occurs after some stimulation. In these experiments, interferon-gamma (IFN-γ) and bacterial lipopolysacharide (LPS) were used as stimulators. The values of NO induced in this way fluctuated in the individual experiments in a range from 52 to 89 μmol·l^−1; for the purposes of comparison between the experiments they were considered as 100%. The production of NO after the application of the substances was expressed in percentage with respect to the control values. (The lower the value, the higher the inhibition effect of the substances on NO production.) IC50 are the concentrations of the substances reducing the production of NO by 50% with respect to the controls.
(§2) Experiments were performed on mice peritoneal cells C57BL/6 (Charles River, Germany—AnLabu).
(§3) NO production was induced using IFN-g (5000 pg/mL) plus LPS (100 pg/mL); evaluated (Griess reagent) after 24 h of the cell cultivation (2×10^6/mL). PGE2 was induced using LPS (10 ng/mL); evaluated (ELISA) following 6 h cultivation of cells (3×10^6/mL). Cell longevity was evaluated using WST-1 (tetrazolium salt), following 24 h cultivation of cells (1×10^6/mL). The values mentioned in the table represent the effects of the substances tested in a concentration of 50 μmol·l^−1.

[2] = system: production of prostaglandin E2 (PGE2); experiment: Production of prostaglandin E2 (PGE2) in cultures of mouse peritoneal cells stimulated with LPS (ELISA kit); assay type: cell-based, mice; settings: for Production of prostaglandins IC50 (μmol · 1^−1) average value and range of values: Table 3B, 6 h; for Production of prostaglandins in % of the controls: Table 3A, substance 50 μmol·l^−1, 6 h
Procedure: as §1
The influence on the production of prostaglandin E2 (PGE2) in vitro caused by the activity of the pyrimidine compounds according to the submitted invention was determined in cultures of the peritoneal cells of mice using a commercial kit (R&DSystems). The concentrations of PGE2 after lipopolysacharide (LPS) stimulation reached in the individual experiments values in a range of 22 to 91 ng·ml^−1 and for the purposes of comparison between the experiments were considered as 100%. The influence of the substances on the production of PGE2 was evaluated in percentage with respect to the control values.
as §2, §3

peritoneal cells of mice = experiment: Cell viability of mouse peritoneal cells (WST-1 kit); assay type: cell-based; settings: substance 50 μmol·l^−1, 24 h; for Cell viabilities in % of the controls: Table 3B; for Cell viability in % of the controls: Table 3A
Procedure: Cell viability was determined in the standard way using a WST-1 kit (Roche). The values of the viability of the control cells were for the purposes of comparison between experiments considered as 100%. The influence of the substances on the longevity of the cells was evaluated in percentage with respect to the control values.
as §2, §3

SMILES	Production of nitric oxide in % of the controls ([1]; Table 3B)	Production of prostaglandins IC50 (μmol · 1^−1) average value and range of values [2]	Cell viabilities in % of the controls (peritoneal cells of mice)	Production of nitric oxide in % of the controls ([1]; Table 3A)	Production of prostaglandins in % of the controls [2]	Cell viability in % of the controls (peritoneal cells of mice)
CCCCc1c(-c2cccnc2)nc(N)nc1-c1ccco1 [Substance 97]	37.05 ± 6.68; n = 6 % of the controls	48.18 ± 19.94; n = 4 μmol · 1^−1	45.54 ± 4.96; n = 8 % of the controls			
CCCCc1c(Cl)nc(N)nc1-c1ccccc1 [Substance 68]	27.78 ± 2.11; n = 4 % of the controls	18.12 ± 0.99; n = 6 μmol · 1^−1	94.17 ± 8.43; n = 8 % of the controls			
CCCCc1c(Cl)nc(N)nc1-c1cccnc1 [Substance 82]	12.07 ± 2.39; n = 8 % of the controls	92.02 ± 8.95; n = 4 μmol · 1^−1	45.38 ± 2.92; n = 12 % of the controls			
CCCCc1c(Cl)nc(N)nc1-c1ccc(OC)cc1 [Substance 75]	15.96 ± 4.83; n = 4 % of the controls	4.7 ± 1.17; n = 4 μmol · 1^−1	86.35 ± 9.29; n = 8 % of the controls			
CCCCc1c(-c2ccncc2)nc(N)nc1-c1cc2ccccc2s1 [Substance 129]	63.94 ± 1.84 n = 4 % of the controls	65.97 ± 25.34; n = 2 μmol · 1^−1	85.12 ± 0.76; n = 8 % of the controls			
CCCCc1c(-c2ccncc2)nc(N)nc1-c1ccco1 [Substance 98]	54.42 ± 2.64; n = 6 % of the controls	62.49 ± 11.98; n = 4 μmol · 1^−1	69.84 ± 3.62; n = 8 % of the controls			
CCCc1c(Cl)nc(N=CN(C)C)nc1Cl [Substance 15]				8.42 ± 4.75 % of the controls	14.76 ± 0.52 % of the controls	109.35 ± 8.88 % of the controls
CCCCc1c(Cl)nc(N)nc1-c1ccco1 [Substance 101]	29.35 ± 6.38; n = 6 % of the controls	6.60 ± 5.34; n = 4 μmol · 1^−1	68.95 ± 3.02; n = 8 % of the controls			
C=CCc1c(Cl)nc(N=CN(C)C)nc1Cl [Substance 17]				6.2 ± 0.91 % of the controls	15.72 ± 0.46 % of the controls	136.13 ± 11.32 % of the controls
CCCCc1c(-c2ccccc2)nc(N)nc1-c1ccc(F)cc1 [Substance 69]	71.24 ± 4.28; n = 4 % of the controls	75.40 ± 21.62; n = 4 μmol · 1^−1	121.04 ± 9.53; n = 4 % of the controls			
CCCCc1c(-c2ccccn2)nc(N)nc1-c1cccc2ccccc12 [Substance 135]	18.45 ± 5.66; n = 6 % of the controls	28.69 ± 0.00; n = 2 μmol · 1^−1	64.97 ± 12.85; n = 8 % of the controls			
CCCCc1c(Cl)nc(NN)nc1Cl.Cl [Substance 146]	86.28 ± 9.01; n = 6 % of the controls	1.61 ± 0.27; n = 4 μmol · 1^−1	103.28 ± 4.62; n = 8 % of the controls			
CCCCc1c(-c2ccncc2)nc(N)nc1-c1cccs1 [Substance 91]	63.95 ± 2.00; n = 4 % of the controls	29.01 ± 5.46; n = 4 μmol · 1^−1	81.38 ± 6.86; n = 4 % of the controls			
CCCCc1c(Cl)nc(Sc2ccccc2)nc1Cl [Substance 148]	61.85 ± 10.25; =10 % of the controls	77.50 ± 16.19; n = 4 μmol · 1^−1	90.49 ± 4.62; n = 12 % of the controls			
C=CCc1c(Cl)nc(N)nc1Cl [Substance 32]				41.72 ± 9.27 % of the controls	90.81 ± 5.95 % of the controls	93.55 ± 19.55 % of the controls
Cc1c(Cl)nc(NC=O)nc1Cl [Substance 48]				1.35 ± 0.01 % of the controls	36.31 ± 1.99 % of the controls	66.37 ± 8.13 % of the controls
CCCCc1c(-c2ccc(F)cc2)nc(N)nc1-c1ccc(OC)cc1 [Substance 73]	65.09 ± 4.11; n = 6 % of the controls	3.92 ± 1.85; n = 4 μmol · 1^−1	130.12 ± 10.97; n = 12 % of the controls			
CCCCc1c(-c2ccoc2)nc(N)nc1-c1cc2ccccc2o1 [Substance 123]	11.15 ± 2.99; n = 6 % of the controls	35.10 ± 14.56; n = 4 μmol · 1^−1	42.62 ± 11.49; n = 12 % of the controls			
CCc1c(Cl)nc(N=CN(C)C)nc1Cl [Substance 14]				23.24 ± 6.78 % of the controls	30.40 ± 0.80 % of the controls	162.93 ± 14.68 % of the controls
CCCCc1c(-c2cccnc2)nc(N)nc1-c1cc2ccccc2s1 [Substance 128]	64.91 ± 6.60 n = 4 % of the controls	31.10 ± 10.43; n = 4 μmol · 1^−1	79.62 ± 4.12; n = 8 % of the controls			
CCCCc1c(Cl)nc(NC2CC2)nc1Cl [Substance 143]	78.33 ± 13.82; n = 6 % of the controls	85.94 ± 12.69; n = 4 μmol · 1^−1	104.31 ± 8.28; n = 8 % of the controls			
CCc1c(Cl)nc(NC=O)nc1Cl [Substance 49]				5.76 ± 2.48 % of the controls	20.58 ± 2.13 % of the controls	111.37 ± 10.44 % of the controls
CCCCc1c(-c2ccc(F)cc2)nc(N)nc1-c1ccsc1 [Substance 108]	64.92 ± 2.30; n = 4 % of the controls	47.21 ± 2.59; n = 2 μmol · 1^−1	124.71 ± 15.20; n = 4 % of the controls			
CCC(C)c1c(Cl)nc(N=CN(C)C)nc1Cl (stereo not drawn) [Substance 21]				0.69 ± 0.12 % of the controls	8.14 ± 0.07 % of the controls	122.65 ± 14.39 % of the controls
CCCCc1c(-c2ccccc2)nc(N)nc1-c1cccs1 [Substance 86]	47.57 ± 8.58; n = 6 % of the controls	27.57 ± 8.77; n = 4 μmol · 1^−1	101.59 ± 9.19; n = 8 % of the controls			
